Experimental data published in ChEMBL document CHEMBL4627301, “Discovery of novel hydroxyamidine derivatives as indoleamine 2,3-dioxygenase 1 inhibitors with in vivo anti-tumor efficacy” (Bioorg Med Chem Lett, 2020).
Active and inactive are the calls of the source. The rule behind the calls is not given here.

Columns and labels:
[1] = tested on: Lewis lung carcinoma cell line; assay: Antitumor activity against mouse LLC cells xenografted in C57BL/6 mouse assessed as tumor growth inhibition at 100 mg/kg, po administered bid for 14 days and measured for 14 days; type: functional, organism-based
[2] = molecular target: T1, Indoleamine 2,3-dioxygenase 1 (Homo sapiens, UniProt P14902); assay: Inhibition of IDO1 (unknown origin) assessed as reduction in kynurenine formation using L-tryptophan as substrate incubated for 60 mins by fluorescence based assay
T1 sequence (P14902 whole entry): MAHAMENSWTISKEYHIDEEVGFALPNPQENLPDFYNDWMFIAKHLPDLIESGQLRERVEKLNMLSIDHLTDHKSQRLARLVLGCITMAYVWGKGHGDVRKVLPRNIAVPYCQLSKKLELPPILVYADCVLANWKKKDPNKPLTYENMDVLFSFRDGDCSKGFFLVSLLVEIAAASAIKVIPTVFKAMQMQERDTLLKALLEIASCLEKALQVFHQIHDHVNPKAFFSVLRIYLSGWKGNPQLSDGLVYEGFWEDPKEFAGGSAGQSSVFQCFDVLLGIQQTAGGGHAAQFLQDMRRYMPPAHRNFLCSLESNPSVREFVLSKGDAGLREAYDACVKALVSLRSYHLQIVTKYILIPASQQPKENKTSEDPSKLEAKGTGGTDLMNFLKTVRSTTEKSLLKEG

[3] = molecular target: T1, Indoleamine 2,3-dioxygenase 1; assay: Inhibition of IDO1 in IFN-gamma stimulated human HeLa cells assessed as reduction in kynurenine formation using L-tryptophan as substrate incubated for 24 hrs by UV-spectrophotometry; type: cell-based
[4] = Toxicity in C57BL/6 mouse xenografted with mouse LLC cells assessed as body weight loss at 100 mg/kg, po administered bid for 14 days and measured for 14 days; type: organism-based, Lewis lung carcinoma; details: in vivo, 336 h

Structure (SMILES)	IC50 [2] [nM]	EC50 [3] [nM]	TGI [1]	Activity [4]
NS(=O)(=O)NCCNc1nonc1/C(=N/O)Nc1ccc(F)c(Br)c1			Active	
C#CCNS(=O)(=O)CCNc1nonc1/C(=N/O)Nc1ccc(F)c(Br)c1	218	33		
O=S(=O)(CCNc1nonc1/C(=N/O)Nc1ccc(F)c(Br)c1)NCC1CC1	312	268		
NS(=O)(=O)NNc1nonc1/C(=N/O)Nc1ccc(F)c(Br)c1	218	101		
NS(=O)(=O)CCCNc1nonc1/C(=N/O)Nc1ccc(F)c(Br)c1	126	15		
N=S1(=O)CC(Nc2nonc2/C(=N/O)Nc2ccc(F)c(Br)c2)C1 (stereo unspecified)	208	53		
CS(=O)(=O)NNc1nonc1/C(=N/O)Nc1ccc(F)c(Br)c1	609	> 800		
O=S(=O)(CCNc1nonc1/C(=N/O)Nc1ccc(F)c(Br)c1)NO	126	> 800		
O=S(=O)(CCNc1nonc1/C(=N/O)Nc1ccc(F)c(Br)c1)NCC(F)(F)F	140	268		
O=S(=O)(CCNc1nonc1/C(=N/O)Nc1ccc(F)c(Br)c1)N1CCC1	191	143		
[O-][S+]1CC(Nc2nonc2/C(=N/O)Nc2ccc(F)c(Br)c2)C1 (stereo unspecified)	212	79		
NNS(=O)(=O)CCNc1nonc1/C(=N/O)Nc1ccc(F)c(Br)c1	135	> 800		

Second part, led by results:

IC50 [2] [nM]	EC50 [3] [nM]	Structure (SMILES)	TGI [1]	Activity [4]
95	41	CCNS(=O)(=O)CCNc1nonc1/C(=N/O)Nc1ccc(F)c(Br)c1		
97	20	CN(C)S(=O)(=O)CCCNc1nonc1/C(=N/O)Nc1ccc(F)c(Br)c1		
99	59	O=S1(=O)CC(Nc2nonc2/C(=N/O)Nc2ccc(F)c(Br)c2)C1		
108	556	NNc1nonc1/C(=N/O)Nc1ccc(F)c(Br)c1		
87	27	NS(=O)(=O)CCONc1nonc1/C(=N/O)Nc1ccc(F)c(Br)c1		
69	73	N#CN=S1CC(Nc2nonc2/C(=N/O)Nc2ccc(F)c(Br)c2)C1 (stereo unspecified)		
105	17	CN(C)S(=O)(=O)CCNc1nonc1/C(=N/O)Nc1ccc(F)c(Br)c1		
71	11	NS(=O)(=O)CCNc1nonc1/C(=N/O)Nc1ccc(F)c(Br)c1	Active	Non-Toxic
